The text below walks through data of ChEMBL document CHEMBL3397021, “Synthesis and biological evaluation of 3-([1,2,4]triazolo[4,3-a]pyridin-3-yl)-4-(indol-3-yl)-maleimides as potent, selective GSK-3β inhibitors and neuroprotective agents” (Bioorg Med Chem, 2015).

SMILES strings stand for the structures. pIC50: −log10 of the molar value.

Test [1] in a line: Neuroprotective activity against glutamate-induced neurotoxicity in Sprague-Dawley rat primary cerebellar granule neurons assessed as cell viability at 10 uM pre-incubated for 24 hrs before glutamate stimulation for 24 hrs by MTT assay. It is filed as functional. Particulars: Neuron, read-out: Activity. In general terms: Formazan colour is commonly taken as a measure of viable cells.

Test [2] concerns the target Glycogen synthase kinase-3 beta (Homo sapiens, UniProt P49841).
Description: Inhibition of recombinant GST-tagged GSK-3beta (unknown origin) expressed in Escherichia coli strain BL21-Codon Plus (DE3) using Ser/Thr 9 peptide substrate by Z'-LYTE kinase assay

Sequence of Glycogen synthase kinase-3 beta (P49841 whole entry): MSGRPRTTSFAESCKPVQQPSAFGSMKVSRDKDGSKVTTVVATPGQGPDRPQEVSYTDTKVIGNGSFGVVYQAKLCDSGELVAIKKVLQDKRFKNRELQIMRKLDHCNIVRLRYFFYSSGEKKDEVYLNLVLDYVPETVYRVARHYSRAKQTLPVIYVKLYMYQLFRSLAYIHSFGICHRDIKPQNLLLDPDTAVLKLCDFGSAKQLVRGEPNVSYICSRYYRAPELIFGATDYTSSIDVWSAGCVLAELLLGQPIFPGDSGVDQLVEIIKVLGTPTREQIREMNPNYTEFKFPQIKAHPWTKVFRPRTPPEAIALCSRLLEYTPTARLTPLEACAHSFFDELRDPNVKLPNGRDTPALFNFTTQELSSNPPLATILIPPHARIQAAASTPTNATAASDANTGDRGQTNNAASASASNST

Usually pIC50 stands for the IC50 on a negative log10 scale, so that one unit is a factor of ten. A higher pIC50 goes with a low IC50. With `Cn1cc(C2=C(c3nnc4ccccn34)C(=O)NC2=O)c2cc(Br)ccc21`, the viability at 10 µM in test [1] worked out at 93.5%. The same compound had a pIC50 in test [2] of 7.20.

Consider `CCCCn1cc(C2=C(c3nnc4ccccn34)C(=O)NC2=O)c2ccccc21`, for which, in test [1], the viability at 10 µM worked out at 93.2%. Also, the pIC50 in test [2] was 7.16.

Compound `COc1ccc2c(c1)c(C1=C(c3nnc4ccccn34)C(=O)NC1=O)cn2C` had a pIC50 in test [2] of 6.03.

With `Cn1cc(C2=C(c3nnc4ccccn34)C(=O)NC2=O)c2ccc(Cl)cc21`, the viability at 10 µM in test [1] was 55.7%. In test [2], this compound showed a pIC50 of 6.80.

The compound `Cn1cc(C2=C(c3nnc4ccccn34)C(=O)NC2=O)c2ccc(Br)cc21` gave a pIC50 in test [2] of 6.48.

Turning to `Cn1cc(C2=C(c3nnc4ccccn34)C(=O)NC2=O)c2cc(Cl)ccc21`, the viability at 10 µM in test [1] turned out to be 95.1%. The same compound had a pIC50 in test [2] of 7.13.

As to `Cn1cc(C2=C(c3nnc4ccccn34)C(=O)NC2=O)c2cc(F)ccc21`, in test [1], the viability at 10 µM came out at 71.6%. In test [2], the pIC50 was 6.73.

Regarding `O=C1NC(=O)C(c2nnc3ccccn23)=C1c1cn(CCCn2ccnc2)c2ccccc12`, in test [1], the viability at 10 µM was 60.6%. In test [2], the pIC50 was 7.44.

Regarding `Cn1cc(C2=C(c3nnc4ccccn34)C(=O)NC2=O)c2ccc(F)cc21`, in test [1], the viability at 10 µM stood at 59.7%. In addition, the pIC50 in test [2] was 6.69.

Compound `O=C1NC(=O)C(c2nnc3ccccn23)=C1c1cn(CCCN2CCOCC2)c2ccccc12` gave a pIC50 in test [2] of 6.70.

Compound `O=C1NC(=O)C(c2nnc3ccccn23)=C1c1c[nH]c2ccccc12` gave a pIC50 in test [2] of 6.32.

`Cc1cccc2c(C3=C(c4nnc5ccccn45)C(=O)NC3=O)cn(C)c12`: the viability at 10 µM in test [1] amounted to 94.3%. Moreover, in test [2], the pIC50 was 6.98.

Regarding `C=CCn1cc(C2=C(c3nnc4ccccn34)C(=O)NC2=O)c2ccccc21`, the pIC50 in test [2] was 7.13.

Regarding `Cn1cc(C2=C(c3nnc4ccccn34)C(=O)NC2=O)c2ccccc21`, the viability at 10 µM in test [1] came to 83.6%. In test [2], this compound gave a pIC50 of 6.81.

For `CC(C)n1cc(C2=C(c3nnc4ccccn34)C(=O)NC2=O)c2ccccc21`, in test [1], the viability at 10 µM was found to be 94.4%. The negative logarithm of the IC50 (pIC50) in test [2] was 7.89.

On to `O=C1NC(=O)C(c2nnc3ccccn23)=C1c1cn(CCCO)c2ccccc12`, for which, in test [2], the pIC50 was 6.92.
